Results taken from patent US20240366555A1, “SELECTIVE MTORC2 INHIBITOR AND USES THEREOF” (ALIAD BIOPHARMA, priority 2021, published 2024).

How the values were obtained:
Pten KO mice [1] = assay: Passive avoidance test in Pten KO mice; format: in vivo; details: FIG. 1b
Description: (§1) As Pten KO mice, Ptenf/f_cre/cre KO mice or Ptenf/f_cre/++ Het mice (KD) were obtained by mating Pten floxed/floxed mice and CAMKII-cre mice. DMSO or athyriol was intraperitoneally injected at 5 or 10 mg/kg for 2 weeks from the age of mice of 6 weeks, and a behavioral test was performed in 7 days after administration. Pten floxed/floxed mice were used as littermates of the same age as a normal control group.
A passive avoidance test was performed as described in Heo et al. (J. Ethnopharmacol. (2009) 122:20-27). After training the avoidance action by strong light three times a day, an electric foot shock (1 mA, 300 g test) was applied for 3 seconds in a dark room at the same time on the next day. After placing white mice in the same room in 24 hours after applying the shock, an avoidance response by light, that is, the time to move from a bright room to a dark room was measured, and it was dataficated for each group. Exactly after 24 hours of adaptation training, the mice were put back into the bright room and the latency time required to enter the dark room was measured for 720 seconds.

mTORC2 = mTORC2 (Homo sapiens, UniProt P42345); assay: In vitro mTORC2 kinase assay (GST-Akt Ser473 phosphorylation, immunoblot); format: biochemical; design: mTORC was isolated by co-immunoprecipitation using Flag antibody; made in house; host or cells: HEK 293T transfected with Flag-mLST8; details: for reduction of GST-Akt Ser473 phosphorylation by mTORC2: FIG. 6a
Description: After introducing Flag-mLST8 into a human cell line 293T, mTORC was isolated by co-immunoprecipitation using Flag antibody. In the in vitro mTORC2 kinase assay, the activity of the isolated mTORC2 was evaluated by measuring phosphorylation of GST-Akt Ser473, which is a selective substrate of mTORC2 by immunoblot analysis. In the control group in which Flag-mLST8 was not introduced, GST-Akt Ser473 phosphorylation was almost not measured. […] Therefore, it was judged that GST-Akt Ser473 phosphorylation measured in the in vitro mTORC2 kinase assay was generated by mTORC2. In order to evaluate the inhibitory effect of norathyriol and athyriol on mTORC2 activity, norathyriol or athyriol was pretreated for 15 minutes, and then in vitro mTORC2 kinase assay was carried out.
More specifically, the HEK 293T cells were cultured in a DMEM culture medium in which 10% heat inactivated FBS+1× Glutamax was added. 8×10^5 HEK 293T cells were seeded in a 100 mm culture dish, and then they were cultured for 1 day. After mixing 42 μl Lipofectamine, 21 μl plus reagent, and 21 μg Flag-mLST8 plasmid DNA to 1 ml OPTI-MEM, it was shaken at a room temperature for 25 minutes to prepare a transfection DNA mixture. The transfection DNA mixture was slowly treated on the cells drop by drop, and after culturing for 5 hours, the culture medium was replaced with a new culture medium. After additional culturing for 48 hours, the cells were […] with CHAPS buffer (50 mM HEPES (pH7.4), 100 mM NaCl, 2 mM EDTA, 0.3% CHAPS, 10 mM sodium pyrophosphate, 10 mM sodium β-glycerophosphate, 1 mM PMSF, 1 μg/ml leupeptin, 1 μg/ml pepstatin A, 10 nM aprotinin, 1 mM Na3VO4, 10 nM calyculin A), and centrifuged at 4° C. at 13,000 rpm for 10 minutes to obtain the supernatant and acquire cell lysate. The protein concentration of the cell lysate was determined with BCA protein assay kit (Thermo Fisher Scientific). After adding anti-Flag M2 affinity gel (50% slurry, Sigma) of 30 μl to the cell lysate of 1 mg, it was shaken at 4° C. for 3 hours. After that, affinity gel was washed with CHAPS buffer 3 times and kinase buffer (50 mM HEPES (pH7.5), 2 mM DTT, 10 mM MnCl2, 10 mM MgCl2) for washing once. After adding kinase buffer [-substrate-ATP] […] After that, kinase buffer (50 mM HEPES (pH7.5), 2 mM DTT, 10 mM MgCl2, 10 mM MnCl2, 1 mM ATP, 500 ng GST-AKT, 10 nM calyculin A) of 10 μl was added and shaken at 30° C. for 45 minutes to progress a kinase reaction. […] Ser473 phosphorylation of GST-AKT, which is a substrate of mTORC2, was measured by performing immunoblot analysis using AKT antibody (#4691, Cell signaling) and phospho Ser473 AKT antibody (#4060, Cell signalig). In order to measure the mTORC2 activity inhibitory effect by the compound, both the kinase buffer [-substrate-ATP] and the kinase buffer included the compound.

Pten KO mice [2] = assay: Elevated plus maze test in Pten KO mice; format: in vivo; details: Pten KO mice administered athyriol; FIG. 2
Description: as §1
In order to confirm whether emotional instability was improved, when athyriol was administered to an autism spectrum disorder animal model, Pten KO mice, an elevated plus maze test was performed. An anxiety disorder animal model behavioral test was evaluated as a tendency to avoid an open arm exposed to the elevated-plus maze and stay in a closed arm. Analysis was conducted with a video tracking system (Ethovision EPM program, Noldus information technology, Wageningen, Netherlands). In the elevated plus maze test measuring emotional instability disorder, when the emotional anxiety increases, the time spent in the closed arm increases compared to the time spent in the open arm.

Row | inhibition at 20 µM (mTORC2; 20 μM, FIG. 6b) [%] | inhibition at 40 µM (mTORC2; 40 μM, FIG. 6b) [%] | reduction of GST-Akt Ser473 phosphorylation by mTORC2 (mTORC2; 5 μM) [%] | reduction of GST-Akt Ser473 phosphorylation by mTORC2 (mTORC2; 40 μM) [%] | IC50 (mTORC2; in vitro mTORC2 kinase assay) [µM] | SMILES | memory ability in passive avoidance test (Pten KO mice [1]; 5 mg/kg) | memory ability in passive avoidance test, level relative to control group (Pten KO mice [1]; 10 mg/kg, % of the control group) [%] | reduction of time spent in the closed arm (Pten KO mice [2]) [%] | time in the center zone (Pten KO mice [2])
1 | 59 | 67 |  |  |  | COc1cc(O)c2c(=O)c3cc(O)c(O)cc3oc2c1 [athyriol, 1,6,7-Trihydroxy-3-methoxy-9H-xanthen-9-on] | rather more excellent than the control group | 89 | 15 | recovered to the normal control group level
2 |  | 46 | ≥ 20 | 50 | 40 | O=c1c2cc(O)c(O)cc2oc2cc(O)cc(O)c12 [norathyriol, 1,3,6,7-tetrahydroxy-9H-xanthen-9-one] |  |  |  | 
